Measured values published in publication PMC9783898 (Pharmaceutics, 2022).
Read-outs that look alike come from different tables or passages of the source.

Key:
PARP1 = PARP1 (Homo sapiens, UniProt P09874); test: PARP1 inhibition activity; format: biochemical
[1] = tested on: H9C2 (rat cardiomyocytes); test: Cytotoxicity assay (MTT, 48 h) on H9C2; format: cell-based; conditions: read-out: H9C2, IC50
[2] = tested on: MES-SA (Human uterine sarcoma); test: Cytotoxicity assay (MTT, 48 h) on MES-SA; format: cell-based
Procedure: Cells were cultured in modified McCoy’s 5a medium supplemented with 10% fetal bovine serum. […] After reaching approx. 90% confluence, cells were detached using 0.05% trypsin/EDTA solution and counted. Then, cells were plated at optimal density for the logarithmic phase of growth. MES-SA cells were seeded onto 96-well plate at a concentration of 3000 cells per well. Blank control wells were left cell-free for background absorption measurement. […] Control cells were incubated with media without compounds. MTT assays were performed after 48 h incubation. Briefly, culture medium was removed from each well and replaced with fresh medium with MTT (0.2 mg/mL). […] The plate was further shaken for 15 min at room temperature, and the optical density at 540 nm of the wells was measured using multichannel spectrophotometer (Thermo Scientific Multiskan EX, Waltham, MA, USA). The percent of alive cells were calculated according to the formula 100∙T/C, where T is the optical density of a test well after 48 h exposure to compound, and C is control cells optical density after 48 h. All compounds were tested in three independent experiments. The IC50 values were calculated using Graph Pad Prism (GraphPad, Inc., La Jolla, CA, USA).

[3] = tested on: MCF-7 (human adenocarcinoma); test: Cytotoxicity assay (MTT, 48 h) on MCF-7; format: cell-based
[4] = tested on: HCC1937 (human breast carcinoma); test: Cytotoxicity assay (MTT, 48 h) on HCC1937; format: cell-based
[5] = tested on: MES-SA/Dx-5 (doxorubicin resistant human uterine sarcoma); parameters: method as in doi:10.1039/D2NJ00340F; conditions: MTT, cited from earlier work
MES-SA/Dx-5 cells [6] = tested on: MES-SA/Dx-5 cells; parameters: method as in doi:10.1039/D2NJ00340F; conditions: IC50 of DOX/IC50 of DOX with compound at IC20, MES-SA/Dx-5; cited from earlier work
MES-SA/Dx-5 cells [7] = test: Reversal of doxorubicin resistance (doxorubicin cytotoxicity in presence of compound at IC20); format: cell-based, human; conditions: IC50 of DOX/IC50 of DOX with a conjugate at IC20, MES-SA/Dx-5
Procedure: To calculate reversal fold (RF) values, doxorubicin cytotoxicity was determined in the presence of the tested compounds at their corresponding IC20 concentration as described above. RF values were calculated as IC50 of DOX/IC50 of DOX in the presence of a tested compound.
Next, the cytotoxicity of 5a–c was evaluated on a doxorubicin resistant human uterus sarcoma cell line (MES-SA/Dx-5) using the MTT assay (Table 2). […] To explore the potential of the novel compounds to reverse doxorubicin resistance, cytotoxicity of doxorubicin was evaluated in the presence of 5a–c at their corresponding IC20 concentrations.

[8] = tested on: MES-SA/Dx-5 (doxorubicin resistant human uterine sarcoma); test: cells; conditions: for IC20: MES-SA/Dx5, read-out: MES-SA/Dx5 IC20
[9] = tested on: MES-SA/Dx-5 (doxorubicin resistant human uterine sarcoma); conditions: MES-SA/Dx-5 vs MES-SA
[10] = PARP1 inhibiting activity, Table 1, read-out: PARP1
[11] = Homo sapiens, MES-SA, read-out: MES-SA, IC50, MTT, 48 h
[12] = Homo sapiens, MCF7, 48 h, read-out: MCF-7, IC50, MTT, 48 h
[13] = Homo sapiens, HCC1937, 48 h, read-out: HCC1937, IC50, MTT, 48 h, BRCA1-deficient breast carcinoma
[14] = MES-SA/Dx5, read-out: MES-SA/Dx5 IC50

PARP1, sequence (P09874 whole entry, species assumed): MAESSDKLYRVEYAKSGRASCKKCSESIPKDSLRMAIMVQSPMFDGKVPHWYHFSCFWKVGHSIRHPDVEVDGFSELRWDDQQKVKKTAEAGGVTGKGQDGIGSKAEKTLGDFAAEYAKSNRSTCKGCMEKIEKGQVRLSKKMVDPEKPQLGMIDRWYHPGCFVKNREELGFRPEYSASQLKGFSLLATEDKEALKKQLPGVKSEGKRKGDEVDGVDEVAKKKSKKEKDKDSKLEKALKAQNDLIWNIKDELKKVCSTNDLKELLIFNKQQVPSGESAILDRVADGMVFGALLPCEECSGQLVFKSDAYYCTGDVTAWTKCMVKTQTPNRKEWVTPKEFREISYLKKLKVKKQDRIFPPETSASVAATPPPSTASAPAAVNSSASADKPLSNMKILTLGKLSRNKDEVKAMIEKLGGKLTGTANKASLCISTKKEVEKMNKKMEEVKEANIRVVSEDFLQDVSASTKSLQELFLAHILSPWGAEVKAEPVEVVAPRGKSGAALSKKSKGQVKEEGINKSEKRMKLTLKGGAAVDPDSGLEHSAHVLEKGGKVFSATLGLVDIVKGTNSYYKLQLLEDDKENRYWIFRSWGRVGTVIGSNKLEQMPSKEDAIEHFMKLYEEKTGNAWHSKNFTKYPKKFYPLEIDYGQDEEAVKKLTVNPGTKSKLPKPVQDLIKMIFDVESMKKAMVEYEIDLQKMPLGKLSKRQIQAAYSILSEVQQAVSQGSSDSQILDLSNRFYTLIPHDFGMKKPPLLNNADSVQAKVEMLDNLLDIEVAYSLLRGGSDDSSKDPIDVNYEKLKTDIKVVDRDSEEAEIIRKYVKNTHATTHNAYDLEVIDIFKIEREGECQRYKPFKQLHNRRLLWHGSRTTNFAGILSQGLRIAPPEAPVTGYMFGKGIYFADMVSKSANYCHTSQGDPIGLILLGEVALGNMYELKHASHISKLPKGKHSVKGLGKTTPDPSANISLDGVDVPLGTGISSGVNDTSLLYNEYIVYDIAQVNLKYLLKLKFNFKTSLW

Cn1c(=O)c2c(Br)c(CN3CCCNCC3)[se]c2c2ccccc21 [Compound 1]
IC50 (PARP1; [10]): > 1 µM
PARP1 activity (PARP1; at 1 µM concentration): did not decrease PARP1 activity
IC50 ([1]; H9c2, 48 h): > 300 µM
IC50 [2, 11]: 17 to 21 µM
IC50 ([2]; read-out: MES-SA, IC50, MTT): 21 ± 3.9 µM
IC50 [3, 12]: 17 to 21 µM
IC50 ([3]; read-out: MCF-7, IC50, MTT, 48 h): 17.1 ± 1.9 µM
IC50 [4, 13]: 17 to 21 µM
IC50 ([4]; read-out: HCC1937, IC50, MTT, 48 h, BRCA1-deficient breast carcinoma): 19.9 ± 4.8 µM
IC20 ([5]; read-out: MES-SA/Dx5 IC20): 7.96 ± 3.03 µM
IC50 ([5]; read-out: MES-SA/Dx5 IC50): 21.1 ± 2.49 µM
RF (reversal fold) (MES-SA/Dx-5 cells [6]): 4.72 ± 0.63

Cn1c(=O)c2c(Br)c(CN3CCCN(C(=O)CCC(=O)N4CCN(C(=O)c5cc(Cc6n[nH]c(=O)c7ccccc67)ccc5F)CC4)CC3)[se]c2c2ccccc21 [Compound 5a, 1-(4-((3-Bromo-5-methyl-4-oxo-4,5-dihydroselenopheno[3,2-c]quinolin-2-yl)methyl)-1,4-diazepan-1-yl)-4-(4-(2-fluoro-5-((4-oxo-3,4-dihydrophthalazin-1-yl)methyl)benzoyl)piperazin-1-yl)butane-1,4-dione]
IC50 (PARP1; [10]): 0.0046 ± 0.0005 µM
IC50 ([1]; H9c2, 48 h): > 300 µM
IC50 [2, 11]: 7.1 ± 2.7 µM
IC50 [3, 12]: > 100 µM
IC50 [4, 13]: 3.1 ± 1 µM
RF (reversal fold) (MES-SA/Dx-5 cells [7]): 0.84 ± 0.16
melting point: > 200 °C
IC20 [8]: 0.48 ± 0.094 µM
IC50 [8, 14]: 21.1 ± 3.94 µM

Cn1c(=O)c2c(Br)c(CN3CCCN(C(=O)CCCCCCCCC(=O)N4CCN(C(=O)c5cc(Cc6n[nH]c(=O)c7ccccc67)ccc5F)CC4)CC3)[se]c2c2ccccc21 [Compound 5b, 1-(4-((3-Bromo-5-methyl-4-oxo-4,5-dihydroselenopheno[3,2-c]quinolin-2-yl)methyl)-1,4-diazepan-1-yl)-10-(4-(2-fluoro-5-((4-oxo-3,4-dihydrophthalazin-1-yl)methyl)benzoyl)piperazin-1-yl)decane-1,10-dione]
IC50 (PARP1; [10]): 0.013 ± 0.0018 µM
IC50 ([1]; H9c2, 48 h): > 300 µM
IC50 [2, 11]: 32.5 ± 1.6 µM
IC50 [3, 12]: > 100 µM
IC50 [4, 13]: > 100 µM
RF (reversal fold) (MES-SA/Dx-5 cells [7]): 3.42 ± 0.12
melting point: 172 to 174 °C
times more cytotoxic to MES-SA/Dx-5 than regular MES-SA cells [9]: ~20 times
IC20 [8]: 0.86 ± 0.096 µM
IC50 [8, 14]: 1.67 ± 0.03 µM

Cn1c(=O)c2c(Br)c(CN3CCCN(C(=O)CCCCCCCCCCC(=O)N4CCN(C(=O)c5cc(Cc6n[nH]c(=O)c7ccccc67)ccc5F)CC4)CC3)[se]c2c2ccccc21 [Compound 5c, 1-(4-((3-Bromo-5-methyl-4-oxo-4,5-dihydroselenopheno[3,2-c]quinolin-2-yl)methyl)-1,4-diazepan-1-yl)-12-(4-(2-fluoro-5-((4-oxo-3,4-dihydrophthalazin-1-yl)methyl)benzoyl)piperazin-1-yl)dodecane-1,12-dione]
IC50 (PARP1; [10]): 0.147 ± 0.0022 µM
IC50 (PARP1; read-out: PARP1 IC50): 0.147 µM
IC50 ([1]; H9c2, 48 h): > 300 µM
IC50 [2, 11]: > 100 µM
IC50 [3, 12]: > 100 µM
IC50 [4, 13]: > 100 µM
RF (reversal fold) (MES-SA/Dx-5 cells [7]): 3.36 ± 0.11
IC20 [8]: 0.549 ± 0.074 µM
IC50 [8, 14]: 26.2 ± 0.03 µM

COc1cccc2c1C(=O)c1c(O)c3c(c(O)c1C2=O)C[C@@](O)(C(=O)CO)C[C@@H]3O[C@H]1C[C@H](N)[C@H](O)[C@H](C)O1 [Doxorubicin, reference compound]
IC50 ([1]; H9c2, MTT, 48 h): 3.9 ± 0.6 µM
IC50 ([2]; Homo sapiens, MES-SA, MTT, read-out: MES-SA, IC50): 0.084 ± 0.011 µM
IC50 ([3]; Homo sapiens, MCF7, 48 h, MTT, 48 h, read-out: MCF-7, IC50): 0.47 ± 0.14 µM
IC50 ([4]; Homo sapiens, HCC1937, 48 h, MTT, 48 h, BRCA1-deficient breast carcinoma, read-out: HCC1937, IC50): 1.08 ± 0.1 µM
IC50 ([8]; MES-SA/Dx5, read-out: Doxorubicin IC50): 2.4 ± 0.41 µM

O=C(c1cc(Cc2n[nH]c(=O)c3ccccc23)ccc1F)N1CCN(C(=O)C2CC2)CC1 [Olaparib, reference compound]
IC50 ([2]; Homo sapiens, MES-SA, read-out: MES-SA, IC50): > 100 µM
IC50 ([3]; Homo sapiens, MCF7, 48 h, read-out: MCF-7, IC50): > 100 µM
IC50 ([4]; Homo sapiens, HCC1937, 48 h, read-out: HCC1937, IC50): > 100 µM
IC50 [8, 14]: > 100 µM
